We go through five compounds from patent publication US20180113115A1, “SCREENING ASSAYS BASED ON MAG AND/OR ABHD6 FOR SELECTING INSULIN SECRETION PROMOTING AGENT” (VAL-CHUM, LIMITED PARTNERSHIP, priority 2010, published 2018).

One test deals with rat islets. As to conditions: lipolysis inhibition by pan-lipase inhibitors; cited from earlier work.
For a further test, the system named is β-cell. As to conditions: inhibition of β-cell plasma membrane DAG lipase activity; cited from earlier work.
A further test deals with MAG lipase (MAGL). As to conditions: cited from earlier work.
Test [1] concerns INS 832/13 cells. Nature of the test: Insulin secretion measurement in INS 832/13 cells (static incubation). The format is cell-based. As to conditions: for glucose-stimulated insulin secretion (GSIS): increasing glucose (5 and 10 mM), 10 μM WWL70, 50 μM orlistat, 1 μM JZL184. How it is done: (§1) INS 832/13 cells (Hohmeir et al.) were cultured at 37° C. in a humidified atmosphere containing 5% CO2 in RPMI 1640 with sodium bicarbonate, supplemented with 10% (v/v) fetal calf serum (Wisent), 10 mM HEPES, pH 7.4, 2 mM L-glutamine, 1 mM sodium pyruvate and 50 μM β-mercaptoethanol (complete RPMI). Cells were grown to 80% confluence. Media were changed to RPMI 1640 containing 3 mM glucose supplemented as the complete RPMI 24 h prior to the experiments. Insulin secretion incubations were conducted in Krebs-Ringer bicarbonate buffer containing 10 mM HEPES, pH 7.4 (KRBH).
INS 832/13 cells were washed in KRBH containing 1 mM glucose and 0.5% defatted BSA (KRBH 1G/0.5% BSA) and pre-incubated for 45 min in KRBH 1G/0.5% BSA in presence of pharmacological agents (at indicated concentrations) or vehicle (DMSO). […] When examining the effect of 2-AG, it was added to cells at 0 to 1 μM concentration at 2 mM and 10 mM glucose. Insulin secretion from INS 832/13 cells was measured from either 45-min or 2-h static incubations in KRBH containing various glucose concentrations, 0.5% defatted BSA and pharmacological agents or vehicle, with or without 35 mM KCl or 0.3 mM palmitate, as specified.

For test [2], the system named is INS832/13 cell membrane extracts. Nature of the test: 1-OG (MAG) hydrolysis by cell membrane extracts, released oleic acid by HPLC. The format is biochemical. As to conditions: 50 μM 1-oleoylglycerol, 1 h at 30° C. How it is done:
8 μg of […] cell membrane extracts were incubated with 50 μM of MAG (1-oleoylglycerol) and the indicated inhibitors for 1 h at 30° C. Released oleic acid was measured by HPLC after Dole's extraction and derivatization with bromoacetaminophenone.

The test system of another test is rat intact islets. Nature of the test: GSIS in isolated intact rat islets. It is filed as cell-based. As to conditions: 20 μM WWL70. The text has this:
(§2) All procedures were approved by the Institutional Committee for the Protection of Animals at the Centre Hospitalier de l'Université de Montreal Research Center. Wistar rats or […] mice or CD1 mice (all male) from Charles River (St-Constant, QC, Canada) were anaesthetized with Somnotol® (MTC Pharmaceuticals, Canada) and sacrificed by exsanguination. Pancreatic islets were isolated by collagenase (type XI from Sigma) digestion of total pancreas (Gotoh et al.), followed by separation (centrifugation at 1040×g) on a Histopaque™ 1119, 1077 (Sigma) gradient. Isolated islets were handpicked and cultured overnight in a petri dish at 37° C. in a humidified atmosphere containing 5% CO2 in RPMI 1640 with sodium bicarbonate, supplemented with 10% fetal calf serum, 10 mM HEPES pH 7.4, 2 mM L-glutamine, 1 mM sodium pyruvate, 100 U/mL penicillin and 100 μg/mL streptomycin.
(§3) For insulin secretion from rat, mouse or human islets, batches of 10 islets were washed in KRBH containing 2.8 mM glucose and 0.5% defatted BSA, and pre-incubated for 45 min in KRBH containing 2.8 mM glucose, 0.5% defatted BSA and different pharmacological agents (at indicated concentrations) or DMSO. […] Total insulin contents and media insulin concentrations were determined by radioimmunoassay using human insulin standards (Linco Research, Mo.).

Test [3] deals with INS 832/13 cells. The test can be described thus: Effect of lipase inhibitors on [U-14C]-glucose incorporation into lipids. It is filed as cell-based. As to conditions: for glucose incorporation into 1-monoacylglycerol (1-MAG) / glucose incorporation into 2-monoacylglycerol (2-MAG) / glucose incorporation into diacylglycerol (DAG) / glucose incorporation into triglycerides (TG): 10 μM WWL70, 1 μM JZL184. How it is done: as §1
INS 832/13 cells were incubated overnight at 11 mM [U-^14C]-glucose in RPMI medium in a CO2-incubator in order to pre-label all the lipids in the cells. Then the cells were washed in KRBH (1 mM [U-^14C]-glucose) and pre-incubated for 45 min in KRBH at 1 mM [U-^14C]-glucose to bring metabolism to basal level. After this, cells were further incubated for 2 h in KRBH at 1 and 10 mM [U-^14C]-glucose and the indicated inhibitors. […] Then the cells were washed rapidly and flash-frozen in liquid nitrogen and extracted for lipids. Lipids were separated by TLC and the associated radioactivity was quantified. Neutral lipids were separated on boric acid/silica gel-TLC, with two solvent systems, first petroleum ether: diethyl ether: acetic acid (70:30:1), followed by second solvent system up to half of the plates, chloroform: acetone: acetic acid (60:40:1). Phospholipids were separated with a solvent system, chloroform: methanol: water (65:25:4).

The next test concerns CD1 mice. Nature of the test: Oral glucose tolerance test (OGTT). The format is in vivo, mouse. As to conditions: WWL70 10 mg/kg intraperitoneally 2 h prior to oral glucose 2 g/kg. How it is done: Normal CD1 mice were fasted for 4 h prior to the oral glucose tolerance test (OGTT). […] Control mice (6) were given only vehicle. After 2 h, all mice were given a oral gavage of glucose (2 g/kg of body weight), followed by blood collection from the tail vein at the indicated times. Blood glucose (glucometer; Accu-Check™, Roche Applied Science) and plasma insulin (ELISA) (insulin mouse ultrasensitive electroimmunoassay, ALPCO Diagnostics, Salem, N.H.) were measured.

The subject of another test is human intact islets. Nature of the test: GSIS in human intact islets. It is filed as cell-based. As to conditions: 20 μM WWL70 or 20 μM AMG9810 alone; one donor. How it is done:
Human islets were obtained from the Human Islet Isolation Core of MDRC, following appropriate ethical guidelines. The donor was a […] without any known metabolic disease. Islets were hand-picked and cultured overnight before use. Both rodent and human islets were also treated with trypsin to disperse islet cells and then cultured overnight in RPMI complete medium. These overnight cultured dispersed islets cells were then used for examining the effect of various pharmacological agents.
(§4) For insulin secretion from rat, mouse or human islets, batches of 10 islets were washed in KRBH containing 2.8 mM glucose and 0.5% defatted BSA, and pre-incubated for 45 min in KRBH containing 2.8 mM glucose, 0.5% defatted BSA and different pharmacological agents (at indicated concentrations) or DMSO. Islets were then incubated for either 45 min or 2 h in KRBH containing various glucose concentrations or 2.8 mM glucose plus 35 mM KCl, 0.5% defatted BSA in the presence or absence of drugs (at indicated concentrations) or vehicle (DMSO). At the end of the incubation, media were collected and insulin extracted from cells or islets in acid-ethanol (1.5% HCl, 75% ethanol). Total insulin contents and media insulin concentrations were determined by radioimmunoassay using human insulin standards (Linco Research, Mo.).

The test system of test [4] is dispersed rat islet cells. Nature of the test: GSIS in dispersed rat islet cells. It is filed as cell-based. As to conditions: 20 μM WWL70, 20 μM AMG9810 or combination.
Description: as §2, with “streptomycin. […]” for “streptomycin.”
as §3

For test [5], the system named is isolated C57Bl6 mouse islets. Nature of the test: GSIS in isolated C57Bl6 mouse islets. The format is cell-based. As to conditions: 20 μM WWL70 or 20 μM AMG9810 alone; 2.8 and 11.1 mM glucose.
Description: as §2, §4

In a further test the test system is ABHD12. As to conditions: cited from earlier work.
The test system of test [6] is isolated CD1 mouse islets. Nature of the test: GSIS in isolated CD1 mouse islets. The format is cell-based. As to conditions: 20 μM WWL70 or 20 μM AMG9810 alone.
Description: as §2, §4

Test [7] concerns the target TRPV1-R (Homo sapiens, UniProt Q8NER1). As to conditions: both in vitro and in vivo; cited from earlier work.
The test system of test [8] is TRPV1-R. As to conditions: cited from earlier work.
The subject of test [9] is INS 832/13 cells. Nature of the test: [1-14C]-arachidonic acid incorporation into 1-AG and 2-AG. It is filed as cell-based. How it is done:
FIG. 2A and FIG. 2B illustrate that glucose stimulates the incorporation of [1-^14C]-arachidonic acid into 1-AG and 2-AG in INS 832/13 cells. Incorporation of [1-^14C]-arachidonic acid (nmol/mg protein) is shown in function of various compounds. Results are shown for low (2 mM, 2G, white) and high (10 mM, 10G, dotted) glucose concentration. […] (n=6; *** p<0.001). Results are shown in nmol/mg protein for different cellular compounds (PL=phospholipids, 1-AG=1-monoarachidonylglycerol, 2-AG=2-monoarachidonylglycerol, NEFA=non-esterified fatty acids, 1,2-DAG=1,2-diacylglycerol, 1,3-DAG=1,3-diacylglycerol, TG=triacylglycerol).

Setting [10] is: 1 and 10 mM [U14C]-glucose, 50 μM orlistat, 10 μM WWL70.
Where [11] appears, read: 1 and 10 mM [U14C]-glucose, 50 μM orlistat.

Entries after “also recorded” stand apart in the source; their conditions may differ. A value given as a limit tells only on which side of the number the result lay.

Sequence of TRPV1-R (Homo sapiens, UniProt Q8NER1) (Q8NER1 whole entry): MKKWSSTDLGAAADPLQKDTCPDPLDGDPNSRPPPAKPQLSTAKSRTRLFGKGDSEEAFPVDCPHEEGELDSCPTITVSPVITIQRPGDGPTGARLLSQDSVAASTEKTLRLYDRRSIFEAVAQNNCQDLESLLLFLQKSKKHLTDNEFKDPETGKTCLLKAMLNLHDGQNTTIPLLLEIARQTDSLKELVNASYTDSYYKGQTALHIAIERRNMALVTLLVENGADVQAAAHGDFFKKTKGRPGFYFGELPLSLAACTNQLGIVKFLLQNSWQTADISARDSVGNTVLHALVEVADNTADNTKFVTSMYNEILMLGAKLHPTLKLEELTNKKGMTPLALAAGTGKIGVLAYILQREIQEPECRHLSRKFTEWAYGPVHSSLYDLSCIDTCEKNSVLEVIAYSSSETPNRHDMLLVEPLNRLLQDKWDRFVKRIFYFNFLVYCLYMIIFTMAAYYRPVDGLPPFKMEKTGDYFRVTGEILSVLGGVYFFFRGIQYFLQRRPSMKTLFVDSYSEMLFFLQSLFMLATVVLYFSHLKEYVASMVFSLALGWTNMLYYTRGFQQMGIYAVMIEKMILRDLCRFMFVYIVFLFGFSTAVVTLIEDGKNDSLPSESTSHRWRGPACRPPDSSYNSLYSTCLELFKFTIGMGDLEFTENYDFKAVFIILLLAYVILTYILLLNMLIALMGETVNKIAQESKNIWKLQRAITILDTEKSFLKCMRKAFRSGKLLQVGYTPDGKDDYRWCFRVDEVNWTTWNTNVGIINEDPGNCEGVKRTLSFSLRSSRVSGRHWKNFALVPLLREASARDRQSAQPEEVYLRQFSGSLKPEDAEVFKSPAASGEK

As to `Cc1cc(C)[nH]n1` [3,5-dimethylpyrazole], the GSIS result in the test with rat islets was “curtailed GSIS”.
For the compound `O=C(NCCCCCCNC(=O)ON=C1CCCCC1)ON=C1CCCCC1` [RHC80267], the GSIS result in the test with β-cell is given as “lowered GSIS”.
As to `CN(Cc1cccc(-c2ccncc2)c1)C(=O)Oc1ccc(-c2ccc(C(N)=O)cc2)cc1` [WWL70], the “effect on MAG lipase (MAGL)” value in the test on MAG lipase (MAGL) was “no effect”. Further, the “portion of GSIS amplified by palmitate” value in the test with INS 832/13 cells [1] (10 μM WWL70, glucose + palmitate) is on record as “not further enhanced”. In addition, in the test on INS 832/13 cells [1] (5 mM and 10 mM glucose), the “WWL70 concentration reaching near maximal enhancement of GSIS” value was roughly 10 µM. In addition, in the test with INS 832/13 cells [1] (35 mM KCl, 1 mM glucose, 10 μM WWL70 or 10 μM AMG9810), the KCl-stimulated insulin secretion entry was “Neither WWL70 nor AMG9810 had any effect”. Moreover, the “insulin secretion stimulated by leucine+glutamine” value in the test with INS 832/13 cells [1] (Gln+Leu 5 mM each, 1 mM glucose, 10 μM WWL70 or 10 μM AMG9810) is “enhanced”. For the same compound, the “glucose-stimulated insulin secretion (GSIS)” value in the test on INS 832/13 cells [1] is reported as “almost doubled the GSIS; also recorded: robust increase”. Besides, the “1-OG hydrolysis activity (released oleic acid)” value in [2] is recorded as “inhibited the 1-OG hydrolysis activity”. For the same compound, the GSIS entry with rat intact islets is reported as “enhanced GSIS”. The “decrease of FFA release (fraction)” value in the test on INS 832/13 cells [3] (10 μM WWL70) is “about ⅔”. Besides, the “glucose incorporation into phospholipids” value in the test with INS 832/13 cells [3] (setting [10]) is “None of the lipase inhibitors had any significant effect”. Also, in the test on INS 832/13 cells [3] (setting [11]), the “glucose incorporation into 1-monoacylglycerol (1-MAG)” value is listed as “elevation”, the “glucose incorporation into 2-monoacylglycerol (2-MAG)” value is “elevation”, the “glucose incorporation into diacylglycerol (DAG)” value is reported as “Neither of the inhibitors had any effect” and the “glucose incorporation into triglycerides (TG)” value is “marginal effect”. Also, in the test with CD1 mice, the glycemia result was “better controlled the glycemia” and the plasma insulin levels entry is “significantly elevated”. The GSIS result in the test with human intact islets was “enhancement”. In addition, the GSIS entry in test [4] was “enhancement”. Further, the GSIS result in test [5] is reported as “enhancement”. Moreover, in the test with ABHD12, the “effect on ABHD12” value was “no effect”. Further, the GSIS entry in test [6] is “enhanced GSIS”.
With `COc1cc(CNC(=O)CCCC/C=C/C(C)C)ccc1O` [capsaicin], the “insulin secretion and Ca2+ influx” value on TRPV1-R [7] was “elevate insulin secretion and Ca^2+ influx”. Further, the insulin resistance result with TRPV1-R [8] (administration of capsaicin) is given as “decrease insulin resistance”. Besides, the plasma insulin levels entry in the test with TRPV1-R [8] (in vivo) is listed as “elevates plasma insulin levels”.
Consider `CCCCCCCCCCC[C@@H](C[C@@H]1OC(=O)[C@H]1CCCCCC)OC(=O)[C@H](CC(C)C)NC=O` [orlistat, tetrahydrolipstatin], for which the insulin secretion entry in the test on INS 832/13 cells [1] (100 μM orlistat, 2 and 10 mM glucose) is reported as “curtails insulin secretion”. In the test with INS 832/13 cells [1], the “glucose-stimulated insulin secretion (GSIS)” value is given as “strongly inhibited GSIS”. Also, the “1-OG hydrolysis activity (released oleic acid)” value in test [2] is reported as “inhibited the 1-OG hydrolysis activity”. Besides, in the test with INS 832/13 cells [3] (1 and 10 mM [U14C]-glucose, 50 μM orlistat, 1 μM JZL184), the “release of [U14C]-free fatty acids (FFA)” value is reported as “almost completely lowered this release”. For the same compound, the “glucose incorporation into phospholipids” value with INS 832/13 cells [3] (setting [10]) is “None of the lipase inhibitors had any significant effect”. Further, in the test with INS 832/13 cells [3] (setting [11]), the “glucose incorporation into 1-monoacylglycerol (1-MAG)” value was “significantly lowered”, the “glucose incorporation into 2-monoacylglycerol (2-MAG)” value was “no effect”, the “glucose incorporation into diacylglycerol (DAG)” value was “Neither of the inhibitors had any effect” and the “glucose incorporation into triglycerides (TG)” value is reported as “TG accumulated”. In the test on rat islets, the GSIS result is “curtailed GSIS”. For the same compound, the “[1-14C]-arachidonic acid incorporation into 1-AG and 2-AG” value with INS 832/13 cells [9] is listed as “curtails”. In addition, the Ki on ABHD12 was less than 100 nM.
